Results from ChEMBL document CHEMBL4229333, “Effects of rigidity on the selectivity of protein kinase inhibitors” (Eur J Med Chem, 2018).

Key:
[1] = target: Ribosomal protein S6 kinase alpha-4 (Homo sapiens) (UniProt O75676); assay: Inhibition of MSK2 (unknown origin) at 1 uM by mobility shift microfluidics platform based assay relative to control
[2] = target: Protein kinase C gamma type (Homo sapiens) (UniProt P05129); assay: Inhibition of PKC-gamma (unknown origin) at 1 uM by mobility shift microfluidics platform based assay relative to control
[3] = target: Rho-associated protein kinase 2 (Homo sapiens) (UniProt O75116); assay: Inhibition of ROCK2 (unknown origin) at 1 uM by mobility shift microfluidics platform based assay relative to control
[4] = target: Ephrin type-A receptor 3 (Homo sapiens) (UniProt P29320); assay: Inhibition of EPH-A3 (unknown origin) at 1 uM by mobility shift microfluidics platform based assay relative to control
[5] = target: Casein kinase I isoform gamma-2 (Homo sapiens) (UniProt P78368); assay: Inhibition of CK1-gamma2 (unknown origin) at 1 uM by mobility shift microfluidics platform based assay relative to control
Homo sapiens = species: Homo sapiens; assay: Inhibition of CDK/Cyclin E (unknown origin) at 1 uM by mobility shift microfluidics platform based assay relative to control
[6] = target: Protein kinase C eta type (Homo sapiens) (UniProt P24723); assay: Inhibition of PKC-eta (unknown origin) at 1 uM by mobility shift microfluidics platform based assay relative to control
[7] = target: Dual specificity protein kinase TTK (Homo sapiens) (UniProt P33981); assay: Inhibition of TTK (unknown origin) at 1 uM by mobility shift microfluidics platform based assay relative to control
[8] = target: Ephrin type-B receptor 3 (Homo sapiens) (UniProt P54753); assay: Inhibition of EPH-B3 (unknown origin) at 1 uM by mobility shift microfluidics platform based assay relative to control
[9] = target: G protein-coupled receptor kinase 6 (Homo sapiens) (UniProt P43250); assay: Inhibition of GRK6 (unknown origin) at 1 uM by mobility shift microfluidics platform based assay relative to control
[10] = target: Tyrosine-protein kinase Srms (Homo sapiens) (UniProt Q9H3Y6); assay: Inhibition of SRMS (unknown origin) at 1 uM by mobility shift microfluidics platform based assay relative to control
[11] = target: Cyclin-dependent kinase 5 (Homo sapiens) (UniProt Q00535); assay: Inhibition of CDK5 (unknown origin) at 1 uM by mobility shift microfluidics platform based assay relative to control
Cyclin-dependent kinase 5 (Homo sapiens), sequence (Q00535 whole entry, looked up): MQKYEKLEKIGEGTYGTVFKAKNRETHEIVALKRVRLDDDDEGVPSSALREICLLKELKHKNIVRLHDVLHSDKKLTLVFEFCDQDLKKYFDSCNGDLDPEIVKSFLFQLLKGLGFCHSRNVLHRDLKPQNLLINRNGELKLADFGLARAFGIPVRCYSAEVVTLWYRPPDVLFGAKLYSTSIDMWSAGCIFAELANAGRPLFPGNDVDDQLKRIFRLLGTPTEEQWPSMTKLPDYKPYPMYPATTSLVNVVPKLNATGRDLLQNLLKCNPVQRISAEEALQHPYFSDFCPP

[12] = target: Serine/threonine-protein kinase MRCK beta (Homo sapiens) (UniProt Q9Y5S2); assay: Inhibition of MRCK-beta (unknown origin) at 1 uM by mobility shift microfluidics platform based assay relative to control
[13] = target: cAMP-dependent protein kinase catalytic subunit beta (Homo sapiens) (UniProt P22694); assay: Inhibition of PKACB (unknown origin) at 1 uM by mobility shift microfluidics platform based assay relative to control
[14] = target: Serine/threonine-protein kinase DCLK2 (Homo sapiens) (UniProt Q8N568); assay: Inhibition of DCAMKL2 (unknown origin) at 1 uM by mobility shift microfluidics platform based assay relative to control
[15] = target: Serine/threonine-protein kinase 24 (Homo sapiens) (UniProt Q9Y6E0); assay: Inhibition of MST3 (unknown origin) at 1 uM by mobility shift microfluidics platform based assay relative to control
[16] = target: Vascular endothelial growth factor receptor 2 (Homo sapiens) (UniProt P35968); assay: Inhibition of KDR (unknown origin) at 1 uM by mobility shift microfluidics platform based assay relative to control
[17] = target: Calcium/calmodulin-dependent protein kinase type II subunit gamma (Homo sapiens) (UniProt Q13555); assay: Inhibition of CAMK2G (unknown origin) at 1 uM by mobility shift microfluidics platform based assay relative to control
[18] = target: Tyrosine-protein kinase Lyn (Homo sapiens) (UniProt P07948); assay: Inhibition of LYNB (unknown origin) at 1 uM by mobility shift microfluidics platform based assay relative to control
Tyrosine-protein kinase Lyn (Homo sapiens), sequence (P07948 2-512 limits assumed): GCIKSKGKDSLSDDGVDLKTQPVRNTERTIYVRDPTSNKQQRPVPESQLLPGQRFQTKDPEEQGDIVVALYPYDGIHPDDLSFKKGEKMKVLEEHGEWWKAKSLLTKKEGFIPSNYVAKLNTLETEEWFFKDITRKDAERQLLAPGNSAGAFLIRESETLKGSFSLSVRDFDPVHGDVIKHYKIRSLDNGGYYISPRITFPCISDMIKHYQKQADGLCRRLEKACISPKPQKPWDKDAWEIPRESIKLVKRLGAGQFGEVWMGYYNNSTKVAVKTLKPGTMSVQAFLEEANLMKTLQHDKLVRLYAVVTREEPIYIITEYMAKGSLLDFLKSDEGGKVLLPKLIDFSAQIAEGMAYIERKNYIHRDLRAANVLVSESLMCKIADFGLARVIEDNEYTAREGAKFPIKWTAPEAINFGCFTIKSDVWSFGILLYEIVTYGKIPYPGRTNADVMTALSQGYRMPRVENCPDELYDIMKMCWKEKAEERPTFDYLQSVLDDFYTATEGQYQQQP

[19] = target: Leukocyte tyrosine kinase receptor (Homo sapiens) (UniProt P29376); assay: Inhibition of LTK (unknown origin) at 1 uM by mobility shift microfluidics platform based assay relative to control
Leukocyte tyrosine kinase receptor (Homo sapiens), sequence (P29376 whole entry): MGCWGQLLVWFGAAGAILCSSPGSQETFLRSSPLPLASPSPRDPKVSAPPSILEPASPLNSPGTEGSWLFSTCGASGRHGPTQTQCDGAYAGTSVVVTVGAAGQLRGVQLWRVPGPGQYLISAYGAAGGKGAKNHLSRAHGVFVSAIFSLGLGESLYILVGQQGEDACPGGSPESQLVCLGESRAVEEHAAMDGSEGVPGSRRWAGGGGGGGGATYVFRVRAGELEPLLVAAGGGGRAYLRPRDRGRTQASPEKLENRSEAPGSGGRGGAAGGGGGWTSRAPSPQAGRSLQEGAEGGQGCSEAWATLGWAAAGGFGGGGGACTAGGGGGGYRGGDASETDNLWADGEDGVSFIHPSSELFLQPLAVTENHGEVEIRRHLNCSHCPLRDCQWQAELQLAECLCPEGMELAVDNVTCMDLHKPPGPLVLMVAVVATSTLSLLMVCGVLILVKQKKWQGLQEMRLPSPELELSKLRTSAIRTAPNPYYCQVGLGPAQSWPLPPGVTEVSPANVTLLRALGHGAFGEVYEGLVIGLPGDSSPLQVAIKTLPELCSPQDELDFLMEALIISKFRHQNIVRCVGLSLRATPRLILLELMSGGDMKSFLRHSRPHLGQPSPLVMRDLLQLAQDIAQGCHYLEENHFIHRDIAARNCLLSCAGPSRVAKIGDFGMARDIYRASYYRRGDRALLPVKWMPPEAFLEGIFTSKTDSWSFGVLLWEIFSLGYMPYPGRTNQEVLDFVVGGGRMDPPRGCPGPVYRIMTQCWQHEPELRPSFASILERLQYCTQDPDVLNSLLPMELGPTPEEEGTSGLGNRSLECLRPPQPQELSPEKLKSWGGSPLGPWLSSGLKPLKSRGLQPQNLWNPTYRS

[20] = system: Serine/threonine-protein kinase B-raf (Homo sapiens), P15056 [V600E]; assay: Ratio of IC50 for inhibition of BRAF V600E mutant (unknown origin) after 20 mins by immunoblotting assay to IC50 for inhibition of full length FLAG-tagged BRAF V600E mutant (unknown origin) expressed in HEK293 cells assessed as decrease in MEK phosphorylation by immunoblotting assay; format: cell-based
[21] = target: cGMP-dependent protein kinase 1 (Homo sapiens) (UniProt Q13976); assay: Inhibition of PRKG1 (unknown origin) at 1 uM by mobility shift microfluidics platform based assay relative to control
[22] = target: Serine/threonine-protein kinase LATS2 (Homo sapiens) (UniProt Q9NRM7); assay: Inhibition of LATS2 (unknown origin) at 1 uM by mobility shift microfluidics platform based assay relative to control
[23] = target: Protein kinase C alpha type (Homo sapiens) (UniProt P17252); assay: Inhibition of PKC-alpha (unknown origin) at 1 uM by mobility shift microfluidics platform based assay relative to control
[24] = target: Ephrin type-B receptor 1 (Homo sapiens) (UniProt P54762); assay: Inhibition of EPH-B1 (unknown origin) at 1 uM by mobility shift microfluidics platform based assay relative to control
[25] = target: Serine/threonine-protein kinase D1 (Homo sapiens) (UniProt Q15139); assay: Inhibition of PRKD1 (unknown origin) at 1 uM by mobility shift microfluidics platform based assay relative to control
Serine/threonine-protein kinase D1 (Homo sapiens), sequence (Q15139 whole entry): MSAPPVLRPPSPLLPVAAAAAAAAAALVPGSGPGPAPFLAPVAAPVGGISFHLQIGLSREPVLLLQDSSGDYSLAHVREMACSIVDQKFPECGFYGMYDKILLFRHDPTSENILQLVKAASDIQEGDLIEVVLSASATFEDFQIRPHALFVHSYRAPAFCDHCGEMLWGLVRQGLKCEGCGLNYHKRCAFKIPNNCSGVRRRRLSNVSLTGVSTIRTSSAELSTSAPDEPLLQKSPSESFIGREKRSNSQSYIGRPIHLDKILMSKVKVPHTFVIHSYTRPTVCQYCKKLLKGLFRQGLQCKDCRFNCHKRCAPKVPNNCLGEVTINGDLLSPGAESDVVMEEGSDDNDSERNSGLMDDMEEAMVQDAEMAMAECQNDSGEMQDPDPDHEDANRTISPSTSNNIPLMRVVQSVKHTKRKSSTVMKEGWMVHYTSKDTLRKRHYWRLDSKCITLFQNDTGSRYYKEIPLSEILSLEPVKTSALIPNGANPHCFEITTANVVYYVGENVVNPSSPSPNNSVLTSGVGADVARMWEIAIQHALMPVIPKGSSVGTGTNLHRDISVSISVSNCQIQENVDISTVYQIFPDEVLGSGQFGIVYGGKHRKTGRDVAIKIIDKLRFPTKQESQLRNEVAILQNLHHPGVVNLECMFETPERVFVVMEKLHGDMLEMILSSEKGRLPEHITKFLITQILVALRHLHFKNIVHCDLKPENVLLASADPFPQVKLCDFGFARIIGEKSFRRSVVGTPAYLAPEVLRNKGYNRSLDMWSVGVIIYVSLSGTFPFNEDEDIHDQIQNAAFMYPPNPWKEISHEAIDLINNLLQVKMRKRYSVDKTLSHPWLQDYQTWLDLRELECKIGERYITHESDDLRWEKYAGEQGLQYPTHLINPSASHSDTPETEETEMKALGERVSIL

[26] = target: Receptor tyrosine-protein kinase erbB-4 (Homo sapiens) (UniProt Q15303); assay: Inhibition of ERB-B4 (unknown origin) at 1 uM by mobility shift microfluidics platform based assay relative to control
[27] = target: Inhibitor of nuclear factor kappa-B kinase subunit alpha (Homo sapiens) (UniProt O15111); assay: Inhibition of IKK-alpha (unknown origin) at 1 uM by mobility shift microfluidics platform based assay relative to control
Inhibitor of nuclear factor kappa-B kinase subunit alpha (Homo sapiens), sequence (O15111 whole entry): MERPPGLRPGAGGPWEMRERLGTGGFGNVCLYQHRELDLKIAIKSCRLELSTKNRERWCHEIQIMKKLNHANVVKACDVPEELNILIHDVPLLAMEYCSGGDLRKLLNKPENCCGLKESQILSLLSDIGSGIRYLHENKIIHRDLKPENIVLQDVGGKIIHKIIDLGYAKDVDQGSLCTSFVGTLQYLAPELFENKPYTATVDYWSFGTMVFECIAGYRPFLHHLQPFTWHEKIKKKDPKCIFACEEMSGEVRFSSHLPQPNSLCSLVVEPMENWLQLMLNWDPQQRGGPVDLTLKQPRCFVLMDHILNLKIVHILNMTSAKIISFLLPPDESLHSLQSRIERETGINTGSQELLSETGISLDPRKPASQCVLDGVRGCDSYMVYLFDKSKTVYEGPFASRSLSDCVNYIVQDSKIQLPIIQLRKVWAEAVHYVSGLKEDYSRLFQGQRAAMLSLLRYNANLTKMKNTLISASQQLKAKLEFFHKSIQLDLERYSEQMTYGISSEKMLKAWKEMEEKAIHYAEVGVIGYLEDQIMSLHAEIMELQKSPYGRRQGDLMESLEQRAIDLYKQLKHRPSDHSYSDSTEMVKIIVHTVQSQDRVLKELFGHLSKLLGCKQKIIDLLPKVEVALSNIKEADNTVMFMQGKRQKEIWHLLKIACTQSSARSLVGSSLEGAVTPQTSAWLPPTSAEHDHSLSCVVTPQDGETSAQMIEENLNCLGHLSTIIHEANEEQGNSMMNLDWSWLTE

[28] = target: Mitogen-activated protein kinase 3 (Homo sapiens) (UniProt P27361); assay: Inhibition of MAPK3 (unknown origin) at 1 uM by mobility shift microfluidics platform based assay relative to control
[29] = target: Focal adhesion kinase 1 (Homo sapiens) (UniProt Q05397); assay: Inhibition of FAK (unknown origin) at 1 uM by mobility shift microfluidics platform based assay relative to control
[30] = target: Protein kinase C zeta type (Homo sapiens) (UniProt Q05513); assay: Inhibition of PKC-zeta (unknown origin) at 1 uM by mobility shift microfluidics platform based assay relative to control
Protein kinase C zeta type (Homo sapiens), sequence (Q05513 whole entry): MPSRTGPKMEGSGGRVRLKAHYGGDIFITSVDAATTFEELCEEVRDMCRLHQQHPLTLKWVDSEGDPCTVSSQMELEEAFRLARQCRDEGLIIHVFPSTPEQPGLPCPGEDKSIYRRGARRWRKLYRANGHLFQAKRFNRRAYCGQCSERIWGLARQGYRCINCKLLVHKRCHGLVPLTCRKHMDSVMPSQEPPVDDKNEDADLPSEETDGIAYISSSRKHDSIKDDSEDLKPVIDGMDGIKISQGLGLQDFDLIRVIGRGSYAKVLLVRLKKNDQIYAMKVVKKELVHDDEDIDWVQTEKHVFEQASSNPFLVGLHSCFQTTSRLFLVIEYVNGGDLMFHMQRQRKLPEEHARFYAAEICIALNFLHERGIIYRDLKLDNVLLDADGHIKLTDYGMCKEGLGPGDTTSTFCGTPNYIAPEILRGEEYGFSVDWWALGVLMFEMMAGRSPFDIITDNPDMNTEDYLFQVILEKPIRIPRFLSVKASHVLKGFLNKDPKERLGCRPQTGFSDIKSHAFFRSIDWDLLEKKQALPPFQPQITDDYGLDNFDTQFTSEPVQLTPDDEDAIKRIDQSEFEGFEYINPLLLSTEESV

[31] = target: Cyclin-dependent kinase 2 (Homo sapiens) (UniProt P24941); assay: Inhibition of CDK2 (unknown origin) at 1 uM by mobility shift microfluidics platform based assay relative to control
[32] = target: Ephrin type-A receptor 5 (Homo sapiens) (UniProt P54756); assay: Inhibition of EPH-A5 (unknown origin) at 1 uM by mobility shift microfluidics platform based assay relative to control
[33] = target: Mitogen-activated protein kinase 8 (Homo sapiens) (UniProt P45983); assay: Inhibition of JNK1 (unknown origin) at 1 uM by mobility shift microfluidics platform based assay relative to control
Mitogen-activated protein kinase 8 (Homo sapiens), sequence (P45983 whole entry): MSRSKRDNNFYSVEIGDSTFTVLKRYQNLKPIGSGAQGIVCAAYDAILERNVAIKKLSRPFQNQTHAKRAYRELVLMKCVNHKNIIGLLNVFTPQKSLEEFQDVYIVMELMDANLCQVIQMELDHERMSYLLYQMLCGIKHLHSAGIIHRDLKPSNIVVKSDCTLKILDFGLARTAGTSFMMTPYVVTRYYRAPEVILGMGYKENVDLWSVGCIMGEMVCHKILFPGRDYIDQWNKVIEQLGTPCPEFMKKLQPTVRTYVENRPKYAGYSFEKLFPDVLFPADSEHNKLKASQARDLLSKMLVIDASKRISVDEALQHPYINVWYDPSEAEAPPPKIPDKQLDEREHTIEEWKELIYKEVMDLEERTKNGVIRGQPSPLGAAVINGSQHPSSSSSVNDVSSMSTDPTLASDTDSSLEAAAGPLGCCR

`CC(C)n1nc(C#Cc2cccc(NC(=O)c3cccc(C(F)(F)F)c3)c2)c2c(N)ncnc21` was tested. Which inhibition [1] did it give?
The inhibition was 3%.

What about the inhibition [2] of the same compound?
Its inhibition is -1%.

What about the inhibition [3] of the same compound?
The inhibition was 18%.

What about the inhibition [4] of the same compound?
Its inhibition is 98%.

And the inhibition [5]?
The inhibition was 1%.

What about the inhibition (Homo sapiens) of the same compound?
The inhibition was 1 to 3%.

What about the inhibition [6] of the same compound?
The inhibition was -5%.

And the inhibition [7]?
The inhibition was 33%.

What about the inhibition [8] of the same compound?
Its inhibition is 98%.

What about the inhibition [9] of the same compound?
The inhibition was -9%.

What about the inhibition [10] of the same compound?
Its inhibition is 55%.

And the inhibition [11]?
The inhibition was 2%.

And the inhibition [12]?
The inhibition was -1%.

What about the inhibition [13] of the same compound?
The inhibition was 2%.

And the inhibition [14]?
The inhibition was 0%.

What about the inhibition [15] of the same compound?
Its inhibition is 0%.

And the inhibition [16]?
Its inhibition is 109%.

And the inhibition [17]?
Its inhibition is 0%.

And the inhibition [18]?
The inhibition was 100%.

And the inhibition [19]?
The inhibition was 4%.

What about the Ratio IC50 [20] of the same compound?
Its Ratio IC50 is 2 to 4.

What about the inhibition [21] of the same compound?
The inhibition was 1%.

What about the inhibition [22] of the same compound?
The inhibition was 0%.

What about the inhibition [23] of the same compound?
Its inhibition is -7%.

And the inhibition [24]?
The inhibition was 97%.

And the inhibition [25]?
The inhibition was 4%.

What about the inhibition [26] of the same compound?
The inhibition was 88%.

What about the inhibition [27] of the same compound?
Its inhibition is 26%.

What about the inhibition [28] of the same compound?
The inhibition was 1%.

And the inhibition [29]?
Its inhibition is -8%.

And the inhibition [30]?
Its inhibition is 2%.

And the inhibition [31]?
Its inhibition is 3%.

What about the inhibition [32] of the same compound?
Its inhibition is 100%.

What about the inhibition [33] of the same compound?
Its inhibition is -9%.

With `CC(C)n1nc(C#Cc2cccc3cc(-c4cccc(C(F)(F)F)c4)ncc23)c2c(N)ncnc21` as the compound, how does the inhibition [1] read?
The inhibition was 5%.

And the inhibition [2]?
The inhibition was 2%.

And the inhibition [3]?
The inhibition was 4%.

What about the inhibition [4] of the same compound?
The inhibition was 76%.

And the inhibition [5]?
The inhibition was 2%.

And the inhibition (Homo sapiens)?
Its inhibition is -1 to 3%.

And the inhibition [6]?
The inhibition was 2%.

And the inhibition [7]?
The inhibition was -3%.

What about the inhibition [8] of the same compound?
Its inhibition is 86%.

And the inhibition [9]?
Its inhibition is 3%.

And the inhibition [10]?
The inhibition was 20%.

What about the inhibition [11] of the same compound?
The inhibition was 3%.

What about the inhibition [12] of the same compound?
Its inhibition is 1%.

And the inhibition [13]?
The inhibition was 3%.

What about the inhibition [14] of the same compound?
Its inhibition is -1%.

What about the inhibition [15] of the same compound?
Its inhibition is 3%.

What about the inhibition [16] of the same compound?
The inhibition was 98%.

What about the inhibition [17] of the same compound?
Its inhibition is 2%.

What about the inhibition [18] of the same compound?
The inhibition was 94%.

And the inhibition [19]?
The inhibition was 8%.

And the Ratio IC50 [20]?
The Ratio IC50 was 2 to 4.

And the inhibition [21]?
Its inhibition is 1%.

And the inhibition [22]?
The inhibition was -2%.

And the inhibition [23]?
The inhibition was 2%.

What about the inhibition [24] of the same compound?
Its inhibition is 84%.

What about the inhibition [25] of the same compound?
Its inhibition is 3%.

What about the inhibition [26] of the same compound?
The inhibition was 4%.

What about the inhibition [27] of the same compound?
The inhibition was -3%.

And the inhibition [28]?
The inhibition was 1%.

And the inhibition [29]?
The inhibition was 3%.

And the inhibition [30]?
The inhibition was 4%.

What about the inhibition [31] of the same compound?
Its inhibition is 1%.

What about the inhibition [32] of the same compound?
The inhibition was 95%.

What about the inhibition [33] of the same compound?
Its inhibition is 2%.
